Measured values taken from patent US8877946B2, “Benzylidene-indolinone compounds and their medical use” (National University of Singapore, priority 2011, dated 2014).
Where two headings read alike, the source gives them in different places.

How the values were obtained:
[1] = system: HuH7 cells; assay: MTT antiproliferative (growth inhibition) assay on HuH7 cells; type: cell-based, human; settings: for IC50: Homo sapiens, Huh-7, MTT
Source text: (§1) MTT was purchased from DUCHEFA Biochemie ([…]). Sunitinib, and sodium dodecyl sulfate, bovine serum albuminwere obtained from Sigma Aldrich (Singapore). Sorafenib was purchase from Ontario Chem. Fetal bovine serum (FBS) was obtained from Invitrogen. Human hepatocellular carcinoma cells (HuH-7 and Hep G2), and human diploid fibroblast strain (IMR 90). HuH7 was obtained as gifts from Dr Ho Han Kiat, Department of Pharmacy, NUS. IMR90 and Hep G2 were purchased from American Type Culture Collection (ATCC). HuH-7 cells were cultured in DMEM (Dulbecco's Modified Eagle Medium, high glucose) with 10% v/v fetal bovine serum (FBS), 100 mg/L penicillin G and 100 mg/L streptomycin. IMR 90 cell were cultured in EMEM (Eagle's Minimum Essential Medium), with 10% v/v FBS and 100 mg/L penicillin G and 100 mg/L streptomycin. The cells were sub-cultured when HuH7 or Hep G2 reached a density of 70-80×10^5 cell/T75 flask, and IMR 90 reached 20×10^5 cell/T75 flask. Cells were used within 2-10 passages for viability experiments.
(§2) The anti-proliferative activity of the test compounds were determined by the MTT assay. An aliquot (200 μL, 3×10^4 cells/mL for HuH7, 3.75×10^4 cells/mL for Hep G2, and 2×10^4 cells/mL for IMR 90) of medium was added to each well of the microtitre plate. […] The existing medium was removed from each well and replaced by fresh medium (200 μL) containing a known concentration of test compound. The final concentration of DMSO in each well was maintained at 0.5% v/v. (1% v/v was also utilized if the compounds were not soluble) The test compounds were incubated with the cells for another 72 h at 37 deg C., 5% CO2. The medium was then removed from the well and replaced with FBS free medium (200 μL) and MTT (50 μL of 2 mg/mL solution in phosphate buffer saline, pH 7.4). The phosphate buffer saline comprises 10 mM of potassium phosphate and 137 mM sodium chloride. After incubation (3 h) at 37 deg C., 5% CO2, the supernatant was removed and a solution of 200 μL DMSO and 25 μL Sorenson buffer (0.1 M glycine, 0.1 M sodium chloride, adjusted to pH 10.5 with 0.1 M sodium hydroxide) was added to dissolve the formazan crystals in each well. Vehicle control were cells grown in 1% v/v DMSO/Medium for 72 h, 37 deg C., 5% CO2 while blank controls were wells that contained only 200 μL DMSO and 25 μL Sorenson buffer. Absorbances were measured at 570 nm on a microplate reader (Tecan, Infinite 200). The viability of cells at a given concentration of test compound was determined from the expression:
(§3) [formula] where abs_compound=absorbance of wells containing cells and test compound, abs_vehicle (Not the same as above. Change to abs_vehicle)=absorbance of vehicle control and abs_blank=absorbance of blank control.
(§4) Each concentration of test compound was evaluated at least 3 times on separate occasions, and two different stock solution were used. The IC50 value (concentration that inhibited 50% of cell growth) was determined from the sigmoidal curve obtained by plotting percentage viability versus logarithmic concentration of test compound using GraphPad Prism 5 (San Diego, USA).

[2] = system: Hep G2; assay: MTT antiproliferative assay on Hep G2 cells; type: cell-based; settings: Homo sapiens, HepG2, 72 h
Source text: as §1, §2, §3, §4

[3] = system: IMR 90; assay: MTT antiproliferative assay on non-malignant IMR 90 fibroblasts; type: cell-based; settings: non-malignant human lung fibroblast IMR 90, MTT, 72 h
Source text: as §1, §2, §3, §4

[4] = 72 h (Table 9), read-out: IC50 (μM) HuH7
[5] = 72 h incubation, mean and SD of 3 or more independent determinations (Tables 1-8), read-out: IC 50

| Compound | IC50 [1, 5] | further results |
| --- | --- | --- |
| CNS(=O)(=O)c1ccc(/C=C2/C(=O)Nc3cc(Cl)ccc32)cc1 [Compound 1-21, (E)-4-(6-Chloro-2-oxo-1,2-dihydro-indol-3-ylidenemethyl)-N-methyl-benzenesulfonamide] | 15.3 ± 0.6 µM | IC50 [1, 4]: 15.3 ± 0.6 µM; IC50 [2]: > 30 µM |
| CCNS(=O)(=O)c1cccc(/C=C2/C(=O)Nc3cc(Cl)ccc32)c1 [Compound 1-22, (E)-3-(6-Chloro-2-oxo-1,2-dihydro-indol-3-ylidenemethyl)-N-ethyl-benzenesulfonamide] | 0.84 ± 0.09 µM | IC50 [1, 4]: 0.84 ± 0.09 µM; IC50 [2]: 3.96 ± 0.55 µM |
| CCCNS(=O)(=O)c1cccc(C=C2C(=O)Nc3cc(Cl)ccc32)c1 [Compound 1-23, E/Z-3-(6-Chloro-2-oxo-1,2-dihydro-indol-3-ylidenemethyl)-N-propyl-benzenesulfonamide] | 0.36 ± 0.04 µM | IC50 [1, 4]: 0.36 ± 0.04 µM; IC50 [2]: 1.51 ± 0.11 µM |
| CC(C)NS(=O)(=O)c1cccc(C=C2C(=O)Nc3cc(Cl)ccc32)c1 [Compound 1-24, E/Z 3-(6-Chloro-2-oxo-1,2-dihydro-indol-3-ylidenemethyl)-N-isopropyl-benzenesulfonamide] | 1.93 ± 0.34 µM | IC50 [1, 4]: 1.93 ± 0.34 µM; IC50 [2]: 5.46 ± 0.95 µM |
| O=C1Nc2ccc(Cl)cc2/C1=C\c1cccc(C(F)(F)F)c1 [Compound 2-7, (E)-5-Chloro-3-(3-(trifluoromethyl)benzylidene)-1,3-dihydro-indol-2-one, reference compound] | 0.81 ± 0.11 µM | IC50 [3]: 9.13 ± 1.12 µM; IC50 [1, 4]: 0.81 ± 0.11 µM; IC50 [2]: 1.5 ± 0.06 µM |
| CCNS(=O)(=O)c1cccc(/C=C2/C(=O)Nc3cc(F)ccc32)c1 [Compound 3-11, (E)-3-(6-Fluoro-2-oxo-1,2-dihydro-indol-3-ylidenemethyl)-N-ethyl-benzenesulfonamide] | 0.39 ± 0.07 µM | IC50 [1, 4]: 0.39 ± 0.07 µM; IC50 [2]: 1.61 ± 0.16 µM |
| CCCNS(=O)(=O)c1cccc(C=C2C(=O)Nc3cc(F)ccc32)c1 [Compound 3-12, E/Z-3-(6-Fluoro-2-oxo-1,2-dihydro-indol-3-ylidenemethyl)-N-propyl-benzenesulfonamide] | 0.12 ± 0.01 µM | IC50 [1, 4]: 0.12 ± 0.01 µM; potency relative to 1-10 on HuH7 ([1]; compared with 1-10 (original lead)): 4 ×; IC50 [2]: 0.72 ± 0.12 µM |
| CC(C)NS(=O)(=O)c1cccc(/C=C2/C(=O)Nc3cc(F)ccc32)c1 [Compound 3-13, (E)-3-(6-Fluoro-2-oxo-1,2-dihydro-indol-3-ylidenemethyl)-N-isopropyl-benzenesulfonamide] | 2.29 ± 0.06 µM | IC50 [1, 4]: 2.29 ± 0.06 µM; IC50 [2]: 4.22 ± 0.48 µM |
| COc1ccc2c(c1)NC(=O)/C2=C/c1cccc(C(F)(F)F)c1 [Compound 5-6, (E)-6-Methoxy-3-(3-trifluoromethyl-benzylidene)-1,3-dihydro-indol-2-one, reference compound] | 1.2 ± 0.05 µM |  |
| COc1ccc2c(c1)NC(=O)/C2=C/c1ccc(C(F)(F)F)cc1 [Compound 5-7, (E)-6-Methoxy-3-(4-trifluoromethyl-benzylidene)-1,3-dihydro-indol-2-one] | > 30 µM |  |
| CNS(=O)(=O)c1cccc(/C=C2/C(=O)Nc3cc(OC)ccc32)c1 [Compound 5-8, (E)-3-(6-Methoxy-2-oxo-1,2-dihydro-indol-3-ylidenemethyl)-N-methyl-benzenesulphonamide] | 0.17 ± 0.02 µM |  |
| O=C1Nc2ccc(F)c(F)c2/C1=C/c1ccccc1 [Compound 6-1, (Z)-3-Benzylidene-4,5-difluoro-1,3-dihydro-indol-2-one] | 31.1 ± 2.12 µM |  |
| O=C1Nc2ccc(F)c(F)c2/C1=C/c1ccccc1F [Compound 6-2, (Z)-4,5-Difluoro-3-(2-fluoro-benzylidene)-1,3-dihydro-indol-2-one] | 16.9 ± 1.67 µM |  |
| O=C1Nc2ccc(F)c(F)c2/C1=C/c1cccc(F)c1 [Compound 6-3, (Z)-4,5-Difluoro-3-(3-fluoro-benzylidene)-1,3-dihydro-indol-2-one] | 15.9 ± 1.14 µM |  |
| O=C1Nc2ccc(F)c(F)c2/C1=C/c1ccc(F)cc1 [Compound 6-4, (Z)-4,5-Difluoro-3-(4-fluoro-benzylidene)-1,3-dihydro-indol-2-one] | 14 ± 0.73 µM |  |
| O=C1Nc2ccc(F)c(F)c2/C1=C/c1ccc(C(F)(F)F)cc1 [Compound 6-7, (Z)-4,5-Difluoro-3-(4-trifluoromethyl-benzylidene)-1,3-dihydro-indol-2-one] | > 30 µM |  |
| O=C1Nc2ccc(F)c(F)c2/C1=C/c1cccc(OC(F)(F)F)c1 [Compound 6-8, (Z)-4,5-Difluoro-3-(3-trifluoromethoxyl-benzylidene)-1,3-dihydro-indol-2-one] | 2.94 ± 0.26 µM |  |

| Compound | IC50 [1, 5] | further results |
| --- | --- | --- |
| CNS(=O)(=O)c1cccc(/C=C2\C(=O)Nc3ccc(F)c(F)c32)c1 [Compound 6-10, (Z)-3-(4,5-Difluoro-2-oxo-1,2-dihydro-indol-3-ylidenemethyl)-N-methyl-benzenesulphonamide] | 15.8 ± 3.37 µM |  |
| O=C1Nc2cc(F)c(F)cc2/C1=C\c1ccccc1 [Compound 7-1, (E)-3-Benzylidene-5,6-difluoro-1,3-dihydro-indol-2-one] | > 30 µM |  |
| O=C1Nc2cc(F)c(F)cc2/C1=C\c1ccccc1F [Compound 7-2, (E)-5,6-Difluoro-3-(2-fluoro-benzylidene)-1,3-dihydro-indol-2-one] | > 30 µM |  |
| O=C1Nc2cc(F)c(F)cc2/C1=C\c1cccc(F)c1 [Compound 7-3, (E)-5,6-Difluoro-3-(3-fluorobenzylidene)-1,3-dihydro-indol-2-one] | 19.2 ± 3.25 µM |  |
| O=C1Nc2cc(F)c(F)cc2/C1=C\c1ccccc1C(F)(F)F [Compound 7-5, (E)-5,6-Difluoro-3-(2-trifluoromethyl-benzylidene)-1,3-dihydro-indol-2-one] | > 30 µM |  |
| O=C1Nc2cc(F)c(F)cc2/C1=C\c1ccc(C(F)(F)F)cc1 [Compound 7-7, (E)-5,6-Difluoro-3-(4-(trifluoromethyl)benzylidene)-1,3-dihydro-indol-2-one] | 10.6 ± 0.68 µM |  |
| O=C1Nc2cc(F)c(F)cc2/C1=C\c1cccc(OC(F)(F)F)c1 [Compound 7-8, (E)-5,6-Difluoro-3-(3-trifluoromethoxyl-benzylidene)-1,3-dihydro-indol-2-one] | 5.61 ± 0.26 µM |  |
| CS(=O)(=O)c1cccc(/C=C2/C(=O)Nc3cc(F)c(F)cc32)c1 [Compound 7-9, (E)-5,6-Difluoro-3-(3-methanesulfonylbenzylidene)-1,3-dihydro-indol-2-one] | 13.9 ± 2.03 µM |  |
| CNS(=O)(=O)c1cccc(C=C2C(=O)Nc3cc(F)c(F)cc32)c1 [Compound 7-10] | 2.76 ± 0.16 µM |  |
| O=C1Nc2ccccc2/C1=C\c1cccc(C(F)(F)F)c1 [Compound 8-1, (E) 3-(3-Trifluoromethyl-benzylidene)-1,3-dihydro-indol-2-one] | 5.56 ± 0.06 µM |  |
| O=C1Nc2ccccc2C1=Nc1cccc(C(F)(F)F)c1 [Compound 8-2, (E/Z) 3-(3-Trifluoromethyl-phenylimino)-1,3-dihydro-indol-2-one] | > 30 µM |  |
| CN1C(=O)/C(=C/c2cccc(C(F)(F)F)c2)c2ccccc21 [Compound 8-3, (E)-1-Methyl-3-(3-trifluoromethyl-benzylidene)-1,3-dihydro-indol-2-one] | 6.74 ± 1.23 µM |  |
| O=C1Nc2cc(Cl)ccc2C1=Nc1cccc(C(F)(F)F)c1 [Compound 8-4, (E/Z) 6-Chloro-3-(3-trifluoromethyl-phenylimino)-1,3-dihydro-indol-2-one] | 20.1 ± 1.72 µM |  |
| CN1C(=O)/C(=C/c2cccc(C(F)(F)F)c2)c2ccc(Cl)cc21 [Compound 8-5, (E)-6-Chloro-1-methyl-3-(3-trifluoromethyl-benzylidene)-1,3-dihydro-indol-2-one] | 1.14 ± 0.19 µM |  |
| O=C1Nc2ccc(Cl)cc2C1=Nc1cccc(C(F)(F)F)c1 [Compound 8-6, (E/Z) 5-Chloro-3-(3-trifluoromethyl-phenylimino)-1,3-dihydro-indol-2-one] | 20.3 ± 3.53 µM |  |
| O=C1Nc2ccc(F)cc2C1=Nc1cccc(C(F)(F)F)c1 [Compound 8-7, (E/Z)-5-Fluoro-3-(3-trifluoromethyl-phenylimino)-1,3-dihydro-indol-2-one] | 23.13 ± 0.21 µM |  |
